Molecules are shown by their SMILES.

The target of one assay is ORAI1/STIM1 (Homo sapiens) (UniProt Q96D31+Q13586). Description: Inhibition of recombinant human STIM1/Orai1 expressed in HEK293 cells assessed as inhibition of peak basal signal after 30 mins by fluo4-AM dye-based FLIPR assay. The format is cell-based.
Sequence of ORAI1/STIM1 (Homo sapiens) (Q13586 23-685 partner limits assumed): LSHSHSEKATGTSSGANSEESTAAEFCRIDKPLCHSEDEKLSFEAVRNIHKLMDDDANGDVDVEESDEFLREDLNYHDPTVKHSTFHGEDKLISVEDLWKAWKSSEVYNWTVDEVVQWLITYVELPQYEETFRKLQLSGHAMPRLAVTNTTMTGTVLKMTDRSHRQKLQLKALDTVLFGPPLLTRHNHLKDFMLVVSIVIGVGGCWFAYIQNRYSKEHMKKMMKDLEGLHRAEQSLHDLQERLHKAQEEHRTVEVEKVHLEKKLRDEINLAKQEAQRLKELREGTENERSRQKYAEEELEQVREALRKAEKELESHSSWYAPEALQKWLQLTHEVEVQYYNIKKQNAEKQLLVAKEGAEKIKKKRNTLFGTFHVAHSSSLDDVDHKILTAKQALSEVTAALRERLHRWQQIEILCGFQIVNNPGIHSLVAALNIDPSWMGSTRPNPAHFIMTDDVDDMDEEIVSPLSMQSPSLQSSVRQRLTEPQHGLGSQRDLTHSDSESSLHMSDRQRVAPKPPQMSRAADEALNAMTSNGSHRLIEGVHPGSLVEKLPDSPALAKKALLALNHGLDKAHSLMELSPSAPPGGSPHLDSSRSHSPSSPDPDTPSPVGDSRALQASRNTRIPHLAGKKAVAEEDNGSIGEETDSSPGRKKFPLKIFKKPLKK
Sequence of ORAI1/STIM1 (Homo sapiens) (Q96D31 whole entry): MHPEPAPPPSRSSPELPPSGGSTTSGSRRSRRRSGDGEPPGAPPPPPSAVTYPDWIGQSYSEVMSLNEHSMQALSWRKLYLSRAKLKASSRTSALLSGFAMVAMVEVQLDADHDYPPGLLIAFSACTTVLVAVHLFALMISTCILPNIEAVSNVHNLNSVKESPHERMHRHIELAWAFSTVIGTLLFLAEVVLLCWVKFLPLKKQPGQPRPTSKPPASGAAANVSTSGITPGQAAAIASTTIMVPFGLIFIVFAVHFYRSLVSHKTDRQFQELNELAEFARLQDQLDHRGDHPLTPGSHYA
For `Cc1ccccc1C(=O)Nc1ncc(-c2cc(C(F)(F)F)nn2C)s1`, the Efficacy is less than 50%. As to `Cn1nc(C(F)(F)F)cc1-c1ccc(NC(=O)c2ccncc2F)s1`, the Efficacy is less than 50%.

In the next assay the test system is Jurkat. Description: Inhibition of PHA/TPA-induced IL2 release in human Jurkat T cells preincubated for 10 mins followed by PHA/TPA stimulation measured after […] by ELISA. Type of assay: functional, cell-based. A general note: In an ELISA, binding on a coated surface is turned into a signal by an enzyme label.
As to `Cn1nc(-c2ccccc2)cc1-c1ccc(C(=O)Nc2ccncc2F)s1`, the IC50 (as a rule, the concentration that gives 50% inhibition) was determined as 50 nM. In other words, the double-digit nanomolar range. Still for that read-out and setting: the value for `Cn1nc(-c2nccs2)cc1-c1ccc(C(=O)Nc2ccncc2F)s1` was less than 50 nM; that for `Cn1nc(-c2nccs2)cc1-c1ccc(C(=O)Nc2ncc(Cl)cc2F)s1` was less than 50 nM.

Regarding `Cn1nc(-c2ccco2)cc1-c1ccc(C(=O)Nc2ncccc2F)s1`, the half-inhibitory concentration (IC50) was greater than 100 nM.

`Cn1nc(C(F)(F)F)cc1-c1cnc(NC(=O)c2ccccc2F)s1` showed a half-maximal inhibitory concentration (IC50) of less than 50 nM. The same measure, in the same setting: the result for `Cn1nc(-c2ccco2)cc1-c1ccc(C(=O)Nc2ccncc2F)s1` reads less than 50 nM. Same read-out and setting: the value for `Cn1nc(-c2ccccc2)cc1-c1ccc(C(=O)Nc2ccccc2F)s1` was greater than 100 nM; that for `Cn1nc(-c2ccccc2F)cc1-c1ccc(C(=O)Nc2ncccc2F)s1` was 50 nM. On the same count and under the same terms, the result for `Cn1nc(-c2nccs2)cc1-c1ccc(C(=O)Nc2ccccc2F)s1` reads less than 50 nM; that for `Cn1nc(-c2ccccc2F)cc1-c1ccc(C(=O)Nc2ncc(Cl)cc2F)s1`, less than 50 nM; that for `Cc1nc2cc(Cl)c(-c3cnc(NC(=O)c4ccccc4Cl)s3)cc2o1`, 50 nM. Compound `Cn1nc(-c2ccccc2F)cc1-c1ccc(C(=O)Nc2c(F)cncc2F)s1` returned a 50% inhibitory concentration (IC50) of less than 50 nM. Turning to `Cn1nc(-c2ccco2)cc1-c1ccc(C(=O)Nc2ncc(Cl)cc2F)s1`, the IC50 is less than 50 nM. `Cn1nc(-c2ccccc2F)cc1-c1ccc(C(=O)Nc2ccncc2F)s1` registered a 50% inhibitory concentration (IC50) of less than 50 nM. Same read-out and setting: the result for `Cn1nc(-c2ccco2)cc1-c1ccc(C(=O)Nc2ccccc2Cl)s1` reads 50 nM; that for `Cn1nc(-c2ccco2)cc1-c1ccc(C(=O)Nc2c(F)cncc2F)s1`, less than 50 nM.

Values taken from ChEMBL document CHEMBL3727365, “Compounds that modulate intracellular calcium” (2012).
